Source: US20210392890A1, “COMPOSITIONS COMPRISING PYRIDINE CARBOXYLATE HERBICIDES AND PLANT GROWTH REGULATORS” (Corteva Agriscience LLC, priority 2018, published 2021)
Where “and” joins values, the source holds several entries; their conditions need not be identical. Equal values may be shown once.

What was measured:
Assay type in all cases: in vivo
[1] = system: Helianthus annuus (common sunflower); assay: Greenhouse postemergence herbicidal effect on HELAN
From the text: (§1) Seeds of the desired test plant species were planted in a 90:10% v/v (volume/volume) mixture of PRO-MIX® BX (Premier Tech Horticulture, Quakertown, Pa., USA) and PROFILE® GREENS GRADE™ (Profile Products LLC, Buffalo Grove, Ill., USA) planting mixture, which typically has a pH of 5.2 to 6.2 and an organic matter content of at least 50 percent, in plastic pots with a surface area of 103.2 square centimeters (cm^2). In some aspects, to help ensure good germination and healthy plants, a fungicide treatment and/or other chemical or physical treatment was applied. The plants were grown for 7-36 days (d) in a greenhouse with an approximate 14-hour (h) photoperiod which was maintained at about 23° C. during the day and 22° C. during the night. Nutrients and water were added on a regular basis and supplemental lighting was provided with overhead metal halide 1000-Watt lamps as necessary. The plants were employed for testing when they reached the second or third true leaf stage.
(§2) Emulsifiable concentrates of each of each pyridine carboxylate herbicide (Compound A or Compound B) were prepared at 100 grams acid equivalent per liter (g ae/L). The emulsifiable concentrates also included a safener, cloquintocet-mexyl, at 120 grams active ingredient per liter (g ai/L). An aliquot of each emulsifiable concentrate was placed in a 25 mL glass vial and diluted with an aqueous mixture of 1.25% (v/v) ACTIROB® B esterified rapeseed oil (Bayer Crop Science, Research Triangle Park, N.C., USA) or MSO® Concentrate with LECI-TECH® methylated soybean oil (Loveland Products, Loveland, Colo., USA) to obtain concentrated stock solutions at the highest application rate for each herbicide, based upon a 12 milliliter (mL) application volume at a rate of 187 liters per hectare (L/ha). The concentrated stock solutions were further diluted with an aqueous mixture of 1.25% v/v ACTIROB® B or MSO® Concentrate with LECI-TECH® to obtain stock solutions at reduced application rates for each herbicide. Spray solutions of the herbicide combinations (Compound A or Compound B plus the PGR) were prepared by adding weighed amounts or aliquots of the PGR to the stock solutions of Compound A or Compound B to form 12-mL spray solutions in two-way combinations.
(§3) The spray solutions were applied to the plant material with an overhead Mandel track sprayer equipped with 8002E nozzles calibrated to deliver 187 L/ha over an application area of 0.503 square meters (m^2) at a spray height of 18 inches (43 centimeters (cm)) above the average plant canopy. Control plants were sprayed in the same manner with the solvent blank. All pyridine carboxylate herbicide (component a) application rates are given as “g ae/ha” and all PGR (component b) application rates are given as “g ai/ha.”
(§4) The treated plants and control plants were placed in a greenhouse as described above and watered by sub-irrigation to prevent wash-off of the test compounds. After 20-22 d, the condition of the test plants as compared with that of the control plants was determined visually and scored on a scale of 0 to 100 percent where 0 corresponds to no injury and 100 corresponds to complete kill.

[2] = system: Viola tricolor (wild pansy); assay: Greenhouse postemergence herbicidal effect on VIOTR
From the text: as §1, §2, §3, §4

[3] = system: Brassica napus (spring rape); assay: Greenhouse postemergence herbicidal effect on BRSNN
From the text: as §1, §2, §3, §4

[4] = system: Stellaria media (chickweed); assay: Greenhouse postemergence herbicidal effect on STEME
From the text: as §1, §2, §3, §4

[5] = system: Glycine max (soybean); assay: Greenhouse postemergence herbicidal effect on GLXMA
From the text: as §1, §2, §3, §4

[6] = system: Polygonum convolvulus (wild buckwheat); assay: Greenhouse postemergence herbicidal effect on POLCO
From the text: as §1, §2, §3, §4

[7] = system: Cirsium arvense (Canada thistle); assay: Greenhouse postemergence herbicidal effect on CIRAR
From the text: as §1, §2, §3, §4

[8] = system: Ipomoea hederacea (ivyleaf morningglory); assay: Greenhouse postemergence herbicidal effect on IPOHE
From the text: as §1
(§5) Emulsifiable concentrates of each of each pyridine carboxylate herbicide (Compound A or Compound B) were prepared at 100 grams acid equivalent per liter (g ae/L). The emulsifiable concentrates also included a safener, cloquintocet-mexyl, at 120 grams active ingredient per liter (g ai/L). […]
as §4

[9] = system: Amaranthus retroflexus (pigweed); assay: Greenhouse postemergence herbicidal effect on AMARE
From the text: as §1, §2, §3, §4

[10] = system: Setaria faberi (giant foxtail); assay: Greenhouse postemergence herbicidal effect on SETFA
From the text: as §1, §2, §3, §4

[11] = system: Abutilon theophrasti (velvetleaf); assay: Greenhouse postemergence herbicidal effect on ABUTH
From the text: as §1, §2, §3, §4

[12] = system: Kochia scoparia (kochia); assay: Greenhouse postemergence herbicidal effect on KCHSC
From the text: as §1, §2, §3, §4

[13] = system: rice (ORYSA); settings: Compound A 0 g/ha, Ethephon 140 g/ha
From the text: as §1, §5
as §4, with “kill. […]” for “kill.”

[14] = system: Sorghum vulgare (grain sorghum); settings: Compound A 0 g/ha, Ethephon 140 g/ha
From the text: as §1, §2, §3, §4

[15] = system: Zea mays (maize); settings: Compound A 0 g/ha, Ethephon 140 g/ha
From the text: as §1, §2, §3, §4

[16] = system: Euphorbia heterophylla (poinsettia); assay: Greenhouse postemergence herbicidal effect on EPHHL
From the text: as §1, §2, §3, §4

[17] = system: Rumex obtusifolia (broadleaf dock); assay: Greenhouse postemergence herbicidal effect on RUMOB; settings: Compound A 0 g/ha, Ethephon 140 g/ha
From the text: as §1, §5
as §4, with “kill. […]” for “kill.”

[18] = system: Echinochloa crus-galli (barnyard grass); assay: Greenhouse postemergence herbicidal effect on ECHCG; settings: Compound A 0 g/ha, Ethephon 140 g/ha
From the text: as §1, §5
as §4, with “kill. […]” for “kill.”

[19] = system: Chenopodium album L. (common lambsquarters); assay: Greenhouse postemergence herbicidal effect on CHEAL
From the text: as §1, §2, §3, §4

[20] = system: Cyperus esculentus (yellow nutsedge); assay: Greenhouse postemergence herbicidal effect on CYPES; settings: Compound A 0 g/ha, Ethephon 140 g/ha
From the text: as §1, §5
as §4, with “kill. […]” for “kill.”

[21] = system: Digitaria sanguinalis (large crabgrass); assay: Greenhouse postemergence herbicidal effect on DIGSA; settings: Compound A 0 g/ha, Ethephon 140 g/ha
From the text: as §1, §5
as §4, with “kill. […]” for “kill.”

[22] = Compound A 0 g/ha, Ethephon 140 g/ha

## O=C(O)Cc1c[nH]c2ccccc12 [IAA, indol-3-ylacetic acid, reference compound]
[1]; PGR 140 g ai/ha alone
  % visual injury Obs: 0%
[2]; PGR 140 g ai/ha alone
  % visual injury Obs: 0%
[3]; PGR 140 g ai/ha alone
  % visual injury Obs: 0%
[4]; PGR 140 g ai/ha alone
  % visual injury Obs: 5%
[5]; PGR 140 g ai/ha alone
  % visual injury Obs: 0%
[6]; PGR 140 g ai/ha alone
  % visual injury Obs: 0%
[7]; PGR 140 g ai/ha alone
  % visual injury Obs: 0%
[8]; PGR 140 g ai/ha alone
  % visual injury Obs: 0%
[9]; PGR 140 g ai/ha alone
  % visual injury Obs: 0%
[10]; PGR 140 g ai/ha alone
  % visual injury Obs: 0%
[11]; PGR 140 g ai/ha alone
  % visual injury Obs: 0%
[12]; PGR 140 g ai/ha alone
  % visual injury Obs: 0%

## O=C(O)CCCc1c[nH]c2ccccc12 [IBA, indol-3-butyric acid, reference compound]
[1]; PGR 140 g ai/ha alone
  % visual injury Obs: 0%
[2]; PGR 140 g ai/ha alone
  % visual injury Obs: 3%
[3]; PGR 140 g ai/ha alone
  % visual injury Obs: 0%
[4]; PGR 140 g ai/ha alone
  % visual injury Obs: 8%
[5]; PGR 140 g ai/ha alone
  % visual injury Obs: 0%
[6]; PGR 140 g ai/ha alone
  % visual injury Obs: 0%
[7]; PGR 140 g ai/ha alone
  % visual injury Obs: 0%
[8]; PGR 140 g ai/ha alone
  % visual injury Obs: 0%
[9]; PGR 140 g ai/ha alone
  % visual injury Obs: 0%
[10]; PGR 140 g ai/ha alone
  % visual injury Obs: 5%
[11]; PGR 140 g ai/ha alone
  % visual injury Obs: 0%
[12]; PGR 140 g ai/ha alone
  % visual injury Obs: 0%

## O=P(O)(O)CCCl [Ethephon, reference compound]
[13]
  Herbicidal Effects (% visual injury) ORYSA Obs: 0%
[1]; [22]
  Herbicidal Effects (% visual injury) HELAN Obs: 0%
[2]; [22]
  Herbicidal Effects (% visual injury) VIOTR Obs: 0%
[3]; [22]
  Herbicidal Effects (% visual injury) BRSNN Obs: 0%
[4]; [22]
  Herbicidal Effects (% visual injury) STEME Obs: 0%
[14]
  Herbicidal Effects (% visual injury) SORVU Obs: 0%
[15]
  Herbicidal Effects (% visual injury) ZEAMX Obs: 0%
[6]; [22]
  Herbicidal Effects (% visual injury) POLCO Obs: 0%
[7]; [22]
  Herbicidal Effects (% visual injury) CIRAR Obs: 0%
[16]; [22]
  Herbicidal Effects (% visual injury) EPHHL Obs: 0%
[17]
  Herbicidal Effects (% visual injury) RUMOB Obs: 0%
[18]
  Herbicidal Effects (% visual injury) ECHCG Obs: 0%
[19]; [22]
  Herbicidal Effects (% visual injury) CHEAL Obs: 0%
[9]; [22]
  Herbicidal Effects (% visual injury) AMARE Obs: 0%
[10]; [22]
  Herbicidal Effects (% visual injury) SETFA Obs: 0%
[11]; [22]
  Herbicidal Effects (% visual injury) ABUTH Obs: 0%
[20]
  Herbicidal Effects (% visual injury) CYPES Obs: 0%
[21]
  Herbicidal Effects (% visual injury) DIGSA Obs: 0%
[12]; [22]
  Herbicidal Effects (% visual injury) KCHSC Obs: 0%

## C#CCOC(=O)c1nc(-c2ccc3cc[nH]c3c2F)c(F)c(N)c1Cl [Compound B, propargyl 4-amino-3-chloro-5-fluoro-6-(7-fluoro-1H-indol-6-yl)pyridine-2-carboxylate]
[1]; herbicide 7.5 g ae/ha alone
  % visual injury Obs: 85%
[1]; herbicide 10 g ae/ha alone
  % visual injury Obs: 100%
[2]; herbicide 7.5 g ae/ha alone
  % visual injury Obs: 10%
[2]; herbicide 10 g ae/ha alone
  % visual injury Obs: 40%
[3]; herbicide 7.5 g ae/ha alone
  % visual injury Obs: 68%
[3]; herbicide 10 g ae/ha alone
  % visual injury Obs: 85%
[4]; herbicide 7.5 g ae/ha alone
  % visual injury Obs: 10%
[4]; herbicide 10 g ae/ha alone
  % visual injury Obs: 93%
[6]; herbicide 7.5 g ae/ha alone
  % visual injury Obs: 73%
[6]; herbicide 10 g ae/ha alone
  % visual injury Obs: 80%
[7]; herbicide 7.5 g ae/ha alone
  % visual injury Obs: 45%
[7]; herbicide 10 g ae/ha alone
  % visual injury Obs: 45%
[16]; herbicide 7.5 g ae/ha alone
  % visual injury Obs: 83%
[16]; herbicide 10 g ae/ha alone
  % visual injury Obs: 99%
[19]; herbicide 7.5 g ae/ha alone
  % visual injury Obs: 85%
[19]; herbicide 10 g ae/ha alone
  % visual injury Obs: 90%
[10]; herbicide 7.5 g ae/ha alone
  % visual injury Obs: 70%
[10]; herbicide 10 g ae/ha alone
  % visual injury Obs: 55%
[11]; herbicide 7.5 g ae/ha alone
  % visual injury Obs: 68%
[11]; herbicide 10 g ae/ha alone
  % visual injury Obs: 68%
[12]; herbicide 7.5 g ae/ha alone
  % visual injury Obs: 68%
[12]; herbicide 10 g ae/ha alone
  % visual injury Obs: 80%

## C[N+](C)(C)CCCl.[Cl-] [Chlormequat, Chlormequat chloride, reference compound]
[1]; PGR 560 g ai/ha alone
  % visual injury Obs: 0%
[2]; PGR 560 g ai/ha alone
  % visual injury Obs: 0% and 3%
[3]; PGR 560 g ai/ha alone
  % visual injury Obs: 0%
[4]; PGR 560 g ai/ha alone
  % visual injury Obs: 0%
[5]; PGR 560 g ai/ha alone
  % visual injury Obs: 10%
[6]; PGR 560 g ai/ha alone
  % visual injury Obs: 0% and 5%
[7]; PGR 560 g ai/ha alone
  % visual injury Obs: 0%
[8]; PGR 560 g ai/ha alone
  % visual injury Obs: 0%
[19]; PGR 560 g ai/ha alone
  % visual injury Obs: 0%
[9]; PGR 560 g ai/ha alone
  % visual injury Obs: 0%
[10]; PGR 560 g ai/ha alone
  % visual injury Obs: 0%
[12]; PGR 560 g ai/ha alone
  % visual injury Obs: 0%
